Values quoted from earlier work as cited in patent publication US7354953B2, “Time-release compositions for delivery of [Cr3O(carboxylate)6(H2O)3]+” (University of Alabama, priority 2006, dated 2008).

Columns and labels:
insulin receptor = insulin receptor (Homo sapiens, UniProt P06213)
[1] = in vivo
[2] = tested on: healthy and model type 2 diabetic rats
rats = conditions: for effect on body mass, percentage lean or fat content, tissue size, blood variables: rats on regular diets
[3] = tested on: adult-onset diabetic patients
[4] = healthy and model type 2 diabetic rats

Chain of insulin receptor (P06213 763-1382 limits assumed, species assumed): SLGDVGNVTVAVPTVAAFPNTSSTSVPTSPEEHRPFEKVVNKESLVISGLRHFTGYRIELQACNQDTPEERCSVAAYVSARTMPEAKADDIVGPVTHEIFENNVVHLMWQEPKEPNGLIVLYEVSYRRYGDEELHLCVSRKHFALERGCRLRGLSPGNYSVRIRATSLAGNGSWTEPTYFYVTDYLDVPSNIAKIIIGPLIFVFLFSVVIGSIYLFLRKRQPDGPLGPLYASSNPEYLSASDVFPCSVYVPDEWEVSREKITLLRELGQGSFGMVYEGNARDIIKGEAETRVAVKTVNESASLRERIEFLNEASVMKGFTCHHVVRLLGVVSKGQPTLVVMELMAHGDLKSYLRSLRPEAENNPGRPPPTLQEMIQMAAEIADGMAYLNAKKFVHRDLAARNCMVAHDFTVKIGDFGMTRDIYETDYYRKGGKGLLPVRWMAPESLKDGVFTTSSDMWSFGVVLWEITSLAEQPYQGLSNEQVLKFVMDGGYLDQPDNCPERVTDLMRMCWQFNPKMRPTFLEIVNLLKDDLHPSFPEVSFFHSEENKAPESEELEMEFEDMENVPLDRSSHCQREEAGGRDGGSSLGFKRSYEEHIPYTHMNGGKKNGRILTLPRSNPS
Chain of insulin receptor (P06213 28-758 partner limits assumed, species assumed): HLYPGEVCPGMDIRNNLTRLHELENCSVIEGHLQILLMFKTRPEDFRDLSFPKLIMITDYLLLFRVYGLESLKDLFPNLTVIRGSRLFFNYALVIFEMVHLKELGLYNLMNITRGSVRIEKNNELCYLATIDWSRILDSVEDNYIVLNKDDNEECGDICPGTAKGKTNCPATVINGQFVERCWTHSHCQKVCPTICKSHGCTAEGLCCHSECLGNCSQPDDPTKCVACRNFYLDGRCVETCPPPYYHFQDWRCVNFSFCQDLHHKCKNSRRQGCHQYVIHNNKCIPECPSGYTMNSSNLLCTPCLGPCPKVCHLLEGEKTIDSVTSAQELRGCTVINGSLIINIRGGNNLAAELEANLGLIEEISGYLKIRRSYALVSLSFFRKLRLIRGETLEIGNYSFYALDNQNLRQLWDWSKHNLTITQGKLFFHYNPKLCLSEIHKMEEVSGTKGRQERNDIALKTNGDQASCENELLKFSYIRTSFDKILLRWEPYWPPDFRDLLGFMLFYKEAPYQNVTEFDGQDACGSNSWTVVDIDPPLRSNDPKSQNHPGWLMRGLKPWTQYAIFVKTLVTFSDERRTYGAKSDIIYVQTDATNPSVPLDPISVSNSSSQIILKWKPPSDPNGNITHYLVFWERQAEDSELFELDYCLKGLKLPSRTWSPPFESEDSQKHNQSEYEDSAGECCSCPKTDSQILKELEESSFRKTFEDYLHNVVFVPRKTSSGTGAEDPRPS

Compound: CCC(=O)[O-].CCC(=O)[O-].CCC(=O)[O-].CCC(=O)[O-].CCC(=O)[O-].CCC(=O)[O-].O.O.O.[Cr+3].[Cr+3].[Cr+3].[O-2] [Complex 1, [[Cr3O(O2CCH2CH3)6(H2O)3]^+]
- ability to stimulate insulin receptor kinase activity (insulin receptor): mimic the ability of LMWCr to stimulate insulin receptor kinase activity
- DNA cleavage (DNA): not to lead to DNA cleavage
- absorption (rate and efficiency, in words) [1]: absorbed very rapidly and very efficiently
- absorption efficiency [1]: 40-60%
- glycated hemoglobin ([2]; diabetes models): reduce glycated hemoglobin
- blood plasma cholesterol and triglycerides levels [2, 4]: improve
- insulin sensitivity [2, 4]: increase insulin sensitivity
- onset of colorectal cancer (colorectal cancer in rat): reduce the onset of colorectal cancer

Compound: [Cl][Cr]([Cl])[Cl] [chromium chloride]
- effect on body mass, percentage lean or fat content, tissue size, blood variables (rats): no effect

Compound: chromium(III) tris(picolinate) [Cr(pic)3]
- insulin requirements ([3]; 138 adult-onset diabetic patients): reduced insulin requirements
- glycemic control ([3]; 180 adult-onset diabetic patients): improved glycemic control
- effect on body mass, percentage lean or fat content, tissue size, blood variables (rats): no effect
- acute toxic effects (rats; rats, up to 1500 μg/kg diet for up to 24 weeks): no acute toxic effects
- chromosome damage (chromosome): cause chromosome damage
- absorption efficiency [1]: 0.5-2%
